From patent US10180422B1, “Methods of treating a neuroendocrine tumor” (Scripps Health, priority 2017, dated 2019)
“Also recorded” adds a separate entry of the source.

Tested on: neuroendocrine tumor (NET) with ETV6:NTRK3 translocation
Assay: Treatment of a NET patient with the Trk inhibitor entrectinib (case report, Example 1)
Type: in vivo, human
Details: for weight gain: patient
Description: A previously healthy patient presented with progressive low back pain and 11 kg weight loss over the previous year. They were a never-smoker, occasional alcohol drinker, and an avid runner. The patient had no relevant family history of cancer.
A right upper quadrant ultrasound noted echogenic masses present in the liver. A computed tomography (CT) scan identified low-density liver lesions, adrenal masses, bulky retroperitoneal and pelvic lymphadenopathy, and diffuse bony disease. […] Multiple hypermetabolic liver lesions are seen, and innumerable lesions are seen throughout the skeleton (FIG. 1A). CT-guided biopsy of the left iliac bone reported well-differentiated neuroendocrine carcinoma (NETs), possibly from a lower GI source. […] Repeat CT-guided core biopsy of a right iliac soft tissue mass confirmed the absence of a high-grade component, consistent with the initial biopsy.
The patient received 3000 cGy of palliative radiotherapy to L1-S3 in 10 fractions for pain management followed by temozolomide and capecitabine chemotherapy.
Following chemotherapy, a tumor biopsy was obtained from the patient's lymph node, FFPE slides were prepared, and the NTRK status of the patient's NET was first analyzed by immunohistochemistry (IHC). The patient's tumor was positive for altered NTRK protein expression and the NET was subsequently analyzed by RNAseq NGS. An ETV6:NTRK3 translocation was identified in the patient's tumor and therapy was initiated with the investigational agent entrectinib, a potent oral tyrosine kinase inhibitor of TrkA, TrkB, and TrkC.

[1] = after cycle #1 (one month) of entrectinib treatment

With `CN1CCN(c2ccc(C(=O)Nc3n[nH]c4ccc(Cc5cc(F)cc(F)c5)cc34)c(NC3CCOCC3)c2)CC1` [entrectinib, N-[5-(3,5-difluoro-benzyl)-1h-indazol-3-yl]-4-(4-methyl-piperazin-1-yl)-2-(tetrahydro-pyran-4-ylamino)-benzamide] the “axial contrast-enhanced abdominal CT, left pelvic sidewall masses” value (after 1 cycle of entrectinib, compared with the scan after chemotherapy (FIG. 3B vs 3A)) was “appear swollen and measure larger, but are lower in density; also recorded: appeared swollen and measured larger, but was lower in density than the previous scan”, the “FDG-PET imaging, skeleton / bony disease” value (after 2 cycles of entrectinib (FIG. 1B, right proximal femur)) was “improvement in the previously confluent bony disease; also recorded: clear improvement was observed in the skeleton” and the “octreoscan, overall disease (tumor) burden” value (after 6 months (6 cycles) of entrectinib, compared with presentation (FIG. 2B vs 2A)) was “significant overall reduction in tumor burden; also recorded: significant reduction in overall disease burden”. For the same molecule, the “pain and energy levels (patient-reported)” value [1] was “significant improvement in pain and energy levels”, the “clinical status (energy, activity, pain control requirements)” value (at 8 months on entrectinib) was “normalized energy and activity, and markedly reduced pain control requirements” and the “response of liver metastases” value (during entrectinib treatment) was “some liver metastases have responded, while others have not”. For the same molecule, the adverse events (patient on entrectinib up to 8 months) was “no notable adverse events”, the weight gain [1] was 6 kg and the weight gain (at 8 months on entrectinib, stabilized) was 12 kg. For the same molecule, the “follow-up CT scans, pelvic nodal masses” value (subsequent months of entrectinib treatment) was “continued shrinkage of the pelvic nodal masses”.
